Data as given in ChEMBL document CHEMBL4229387, “Recent progress of the development of dipeptidyl peptidase-4 inhibitors for the treatment of type 2 diabetes mellitus” (Eur J Med Chem, 2018).
Blank lines part the entries; values can stand above or below the compound they belong to. Peptide text beside a SMILES is read from it.

Assays:
[1] = biological target: T1, Dipeptidyl peptidase 4 (Homo sapiens, UniProt P27487); assay: Inhibition of recombinant human DPP4 using Gly-Pro-AMC as substrate after 1 hr by fluorescence assay
Target sequence in this assay (P27487 whole entry): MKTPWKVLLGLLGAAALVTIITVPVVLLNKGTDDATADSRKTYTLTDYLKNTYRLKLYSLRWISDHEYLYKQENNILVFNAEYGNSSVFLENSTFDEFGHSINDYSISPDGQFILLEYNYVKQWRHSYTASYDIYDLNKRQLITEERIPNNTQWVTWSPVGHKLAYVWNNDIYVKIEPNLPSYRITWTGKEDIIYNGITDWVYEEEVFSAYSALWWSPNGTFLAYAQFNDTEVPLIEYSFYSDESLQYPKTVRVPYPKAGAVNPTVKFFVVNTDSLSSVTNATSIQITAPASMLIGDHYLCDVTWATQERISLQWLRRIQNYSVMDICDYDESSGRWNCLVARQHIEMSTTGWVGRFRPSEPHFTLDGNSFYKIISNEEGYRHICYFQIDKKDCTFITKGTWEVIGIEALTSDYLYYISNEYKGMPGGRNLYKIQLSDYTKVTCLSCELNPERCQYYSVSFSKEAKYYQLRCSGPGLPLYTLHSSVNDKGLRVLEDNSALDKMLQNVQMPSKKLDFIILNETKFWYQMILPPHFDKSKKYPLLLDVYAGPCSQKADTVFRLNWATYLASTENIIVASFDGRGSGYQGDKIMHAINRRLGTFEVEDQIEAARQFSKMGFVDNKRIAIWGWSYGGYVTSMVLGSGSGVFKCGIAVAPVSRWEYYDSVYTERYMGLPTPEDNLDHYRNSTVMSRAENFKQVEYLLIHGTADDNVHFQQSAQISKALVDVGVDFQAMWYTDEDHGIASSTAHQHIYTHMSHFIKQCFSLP

[2] = biological target: T1, Dipeptidyl peptidase 4; assay: Inhibition of DPP4 (unknown origin) using Gly-Pro-AMC as substrate preincubated for 4 secs followed by substrate addition and measured after 30 mins by […] assay
Target sequence in this assay (P27487 whole entry): as above

[3] = Elimination half life in human; details: in vivo
[4] = biological target: T1, Dipeptidyl peptidase 4; assay: Inhibition of DPP4 (unknown origin)
Target sequence in this assay (P27487 whole entry, looked up): as the sequence (P27487 whole entry) above

[5] = biological target: T1, Dipeptidyl peptidase 4; assay: Inhibition of recombinant human DPP4 expressed in baculovirus expression system using Ala-Pro-AMC as substrate by fluorometric analysis
Target sequence in this assay (P27487 whole entry): as above

[6] = biological target: T1, Dipeptidyl peptidase 4; assay: Inhibition of recombinant human DPP4 pre-incubated for 30 mins before Gly-Pro-Aminomethylcoumarin substrate addition
Target sequence in this assay (P27487 whole entry): as above

[7] = biological target: T1, Dipeptidyl peptidase 4; assay: Inhibition of recombinant human DPP4 using H-Gly-Pro-AMC as substrate preincubated for 15 mins followed by substrate addition measured for 20 mins with 1 min interval
Target sequence in this assay (P27487 whole entry): as above

[8] = biological target: T1, Dipeptidyl peptidase 4; assay: Inhibition of recombinant human DPP4 using Gly-Pro-AMC as substrate after 30 mins by fluorescence assay
Target sequence in this assay (P27487 whole entry): as above

[9] = biological target: T2, Dipeptidyl peptidase 4 (Sus scrofa, UniProt P22411); assay: Inhibition of porcine DPP4 after 30 mins by luminescence assay
T2 sequence (P22411 whole entry): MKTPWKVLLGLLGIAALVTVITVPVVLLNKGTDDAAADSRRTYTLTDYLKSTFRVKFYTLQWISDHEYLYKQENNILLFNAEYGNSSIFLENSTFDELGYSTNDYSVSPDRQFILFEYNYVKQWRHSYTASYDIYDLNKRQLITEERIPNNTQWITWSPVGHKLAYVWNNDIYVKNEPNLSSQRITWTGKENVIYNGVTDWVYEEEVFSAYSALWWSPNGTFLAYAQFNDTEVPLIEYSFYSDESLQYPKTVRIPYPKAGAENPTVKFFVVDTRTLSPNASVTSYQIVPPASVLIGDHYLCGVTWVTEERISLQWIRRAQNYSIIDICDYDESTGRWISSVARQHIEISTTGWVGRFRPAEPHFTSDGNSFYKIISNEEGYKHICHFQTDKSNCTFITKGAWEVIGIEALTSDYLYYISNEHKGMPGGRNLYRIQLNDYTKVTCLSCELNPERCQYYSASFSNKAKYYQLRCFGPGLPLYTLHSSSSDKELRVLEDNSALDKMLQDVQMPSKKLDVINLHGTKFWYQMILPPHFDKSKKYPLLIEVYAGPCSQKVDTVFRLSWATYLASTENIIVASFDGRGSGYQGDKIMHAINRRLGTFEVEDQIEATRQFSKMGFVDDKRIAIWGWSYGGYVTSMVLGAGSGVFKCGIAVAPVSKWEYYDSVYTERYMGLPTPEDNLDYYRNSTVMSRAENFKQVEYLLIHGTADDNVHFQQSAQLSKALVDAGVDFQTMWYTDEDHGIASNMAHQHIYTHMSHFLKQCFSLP

[10] = biological target: T2, Dipeptidyl peptidase 4; assay: Inhibition of porcine kidney DPP4
[11] = biological target: T1, Dipeptidyl peptidase 4; assay: Inhibition of DPP4 (unknown origin) using Gly-Pro-pNA as substrate after 60 mins
[12] = biological target: T1, Dipeptidyl peptidase 4; assay: Inhibition of recombinant human DPP4 using H-Gly-Pro-AMC as substrate after 30 mins by fluorometric analysis

Compound: N[C@@H](CCn1cc(-c2ccncc2)nn1)Cc1cc(F)c(F)cc1F
- IC50 [1]: 14 nM

Compound: O=c1cc(-c2ccc(O)c(O)c2)oc2cc(O)cc(O)c12 [LUTEOLIN]
- IC50 [2]: 120 nM

Compound: O=C1C[C@@H](c2ccc(O)cc2)Oc2cc(O)cc(O)c21 [NARINGENIN]
- IC50 [2]: 240 nM

Compound: CC#CCn1c(N2CCC[C@@H](N)C2)cc(=O)n(Cc2cn(CCC(=O)OC)nn2)c1=O
- IC50 [4]: 64.3 nM

Compound: COC(=O)c1cn([C@@H]2CN[C@H](C(=O)N3CCC(F)(F)C3)C2)nn1
- IC50 [5]: 720 nM

Compound: CC(C)=CCn1c(N2CCCC(N)C2)nc2c1c(=O)n(Cc1ccccc1C#N)c(=O)n2C (centres undefined)
- IC50 [6]: 19.6 nM

Compound: O=C(N/N=C/c1cccc2ccccc12)c1[nH]nc2c1CCCC2
- IC50 [7]: 3440 nM

Compound: Brc1nc2n(n1)CC(c1cc3ccccc3o1)=NN2
- IC50 [8]: 28000 nM

Compound: COc1c(O)cc2oc(-c3ccc(O)cc3)cc(=O)c2c1O [HISPIDULIN]
- IC50 [9]: 490 nM

Compound: N#C[C@@H]1C[C@@H]2C[C@@H]2N1C(=O)[C@@H](N)C12CC3CC(CC(C3)C1)C2
- half-life [3]: 2 to 4 h

Compound: CC1(C)CCC(=O)N(C[C@@H](N)CC(=O)N2CCc3c(nc(C(F)(F)F)nc3C(F)(F)F)C2)C1
- half-life [3]: 16.7 to 21.3 h

Compound: Cc1cc(-c2cn([C@@H]3CN[C@H](C(=O)N4CCC(F)(F)C4)C3)nn2)ccc1F
- IC50 [5]: 1320 nM

Compound: O=c1c(O)c(-c2ccc(O)c(O)c2)oc2cc(O)cc(O)c12 [QUERCETIN]
- IC50 [2]: 2920 nM

Compound: O=C(O[C@@H]1Cc2c(O)cc(O)cc2O[C@@H]1c1cc(O)c(O)c(O)c1)c1cc(O)c(O)c(O)c1 [EPIGALOCATECHIN GALLATE]
- IC50 [2]: 10200 nM

Compound: O=C1CC(c2ccc(O)cc2)Oc2cc(O)cc(O)c21 (centres undefined)
- IC50 [9]: 2500 nM

Compound: O=c1cc(-c2ccc(O)cc2)oc2cc(O)cc(O)c12 [APIGENIN]
- IC50 [2]: 140 nM

Compound: O=C([C@@H]1C[C@H](n2cc(-c3ccccc3)nn2)CN1)N1CCC(F)(F)C1
- IC50 [5]: 660 nM

Compound: CC[C@H](C)[C@H](N)C(=O)N[C@@H](CC(C)C)C(=O)N[C@@H](C)C(=O)N1CCC[C@H]1C(=O)O (H-ILAP-OH)
- IC50 [10]: 43000 to 159000 nM

Compound: COc1cc(-c2[o+]c3cc(O)cc(O)c3cc2O)cc(OC)c1O [MALVIDIN CHLORIDE]
- IC50 [2]: 1410 nM

Compound: O=C(O)c1cc(O)c(O)c(O)c1 [GALLIC ACID]
- IC50 [2]: 4650 nM

Compound: O=C(N/N=C/c1c(O)ccc2ccccc12)c1n[nH]c2c1CCCC2
- IC50 [7]: 2120 nM

Compound: CC(C)C[C@H](NC(=O)[C@@H](N)CC(C)C)C(=O)N[C@@H](C)C(=O)N1CCC[C@H]1C(=O)O (H-LLAP-OH)
- IC50 [10]: 43000 to 159000 nM

Compound: O=C(CNC(=O)C1CCCN(S(=O)(=O)c2ccccc2)C1)Nc1ccc(Cl)cc1 (centres undefined)
- IC50 [12]: 94.8 nM

The remaining lines, values ahead:

- IC50 [2]: 480 nM
Compound: O=c1c(-c2ccc(O)cc2)coc2cc(O)cc(O)c12 [GENISTEIN]

- half-life [3]: 26.9 h
Compound: Cc1cc(N2CCN([C@@H]3CN[C@H](C(=O)N4CCSC4)C3)CC2)n(-c2ccccc2)n1 [TENELIGLIPTIN]

- IC50 [2]: 0.6 nM
Compound: Oc1ccc(/C=C/c2cc(O)cc(O)c2)cc1 [RESVERATROL]

- half-life [3]: 5.8 to 6.2 h
Compound: Cc1cc2ncc(C(=O)NCC(C)(C)NCC(=O)N3CCC[C@H]3C#N)cn2n1 [ANAGLIPTIN]

- half-life [3]: 63.5 h
Compound: O=C([C@@H]1C[C@H](N2CCN(c3ncccn3)CC2)CN1)N1CCC(F)(F)C1 [GOSOGLIPTIN]

- half-life [3]: 11 to 22 h
Compound: CS(=O)(=O)n1cc2c(n1)CN([C@H]1CO[C@H](c3cc(F)ccc3F)[C@@H](N)C1)C2 [OMARIGLIPTIN]

- IC50 [2]: 490 nM
Compound: O=c1c(O)c(-c2ccc(O)cc2)oc2cc(O)cc(O)c12 [KAEMPFEROL]

- IC50 [2]: 420 nM
Compound: OC[C@H]1O[C@@H](Oc2cc3c(O)cc(O)cc3[o+]c2-c2ccc(O)c(O)c2)[C@H](O)[C@@H](O)[C@@H]1O [KUROMANIN]

- half-life [3]: 38.4 to 54.3 h
Compound: Cn1c(=O)cc(N2CCC[C@@H](N)C2)n(Cc2cc(F)ccc2C#N)c1=O [TRELAGLIPTIN]

- IC50 [9]: 430 nM
Compound: COc1cc2oc(-c3ccc(O)cc3)cc(=O)c2c(O)c1OC [CIRSIMARITIN]

- IC50 [2]: 3370 nM
Compound: O=C(O)/C=C/c1ccc(O)c(O)c1 [CAFFEIC ACID]

- IC50 [2]: 1410 nM
Compound: Oc1cc(O)c2cc(O)c(-c3ccc(O)c(O)c3)[o+]c2c1 [CYANIDIN CHLORIDE]

- IC50 [2]: 10400 nM
Compound: C[C@@H]1O[C@@H](OC[C@H]2O[C@@H](Oc3cc(O)c4c(c3)O[C@H](c3ccc(O)c(O)c3)CC4=O)[C@H](O)[C@@H](O)[C@@H]2O)[C@H](O)[C@H](O)[C@H]1O [ERIOCITRIN]

- half-life [3]: 21.1 h
Compound: Cn1c(=O)cc(N2CCC[C@@H](N)C2)n(Cc2ccccc2C#N)c1=O [ALOGLIPTIN]

- IC50 [2]: 280 nM
Compound: COc1ccc([C@@H]2CC(=O)c3c(O)cc(O)cc3O2)cc1O [HESPERETIN]

- IC50 [2]: 170 nM
Compound: O=c1cc(-c2ccccc2)oc2ccccc12 [FLAVONE]

- half-life [3]: 8 to 24 h
Compound: N[C@@H](CC(=O)N1CCn2c(nnc2C(F)(F)F)C1)Cc1cc(F)c(F)cc1F [SITAGLIPTIN]

- half-life [3]: 32.5 to 39.8 h
Compound: CC(C)(C)OC[C@@H]1C(=O)NCCN1C(=O)C[C@H](N)Cc1cc(F)c(F)cc1F [EVOGLIPTIN]

- IC50 [10]: 43000 to 159000 nM
Compound: H-MAGVDHI-OH

- half-life [3]: 10 to 40 h
Compound: CC#CCn1c(N2CCC[C@@H](N)C2)nc2c1c(=O)n(Cc1nc(C)c3ccccc3n1)c(=O)n2C [LINAGLIPTIN]

- IC50 [11]: 65700 nM
Compound: CC(C)[C@H](N)C(=O)N[C@@H](Cc1c[nH]c2ccccc12)C(=O)O [VALYLTRYPTOPHAN] (H-Val-Trp-OH)
